Columns and labels:
[1] = NOVARTIS: Cytotoxicity against human hepatocellular carcinoma cell line (Huh7); assay type: toxicity, cell-based, Huh-7; conditions: Huh7 cells (hepatocellular carcinoma cell line)
Plasmodium falciparum [2] = assay: NOVARTIS: Inhibition of Plasmodium falciparum 3D7 (drug-susceptible) proliferation in erythrocyte-based infection assay; assay type: functional, organism-based; conditions: Plasmodium falciparum, 3D7
Plasmodium falciparum [3] = assay: NOVARTIS: Inhibition of Plasmodium falciparum W2 (drug-resistant) proliferation in erythrocyte-based infection assay; assay type: functional, organism-based; conditions: Plasmodium falciparum, W2; read-out: EC50

SMILES	CC50 [1]	EC50 (Plasmodium falciparum [2])	EC50 (Plasmodium falciparum [3])
O=C(N1CCCCC1)n1nnc2ccccc21	> 100000 nM	1310 nM	396 nM
CCC(C)NCC(O)(c1ccc(Cl)cc1)c1ccc(Cl)cc1 (configuration not stated)	46300 nM	639 nM	184 nM
Cc1cc(N2CCC(C)CC2)nc(-n2nc(C)cc2C)n1	> 100000 nM	1100 nM	382 nM
O=C(NC(c1ccccc1)c1ccc2cccnc2c1O)c1ccccc1 (configuration not stated)	> 100000 nM	533 nM	376 nM
COc1ccc(-n2nc(C(=O)NCc3ccccc3OC)c3ccccc3c2=O)cc1	> 100000 nM	377 nM	390 nM
Fc1cccc2sc(Nc3nc(-c4ccccn4)cs3)nc12	24700 nM	321 nM	95.8 nM
Cc1cc(Nc2ccc(C)c(C)c2)n2nc(C)nc2n1	> 100000 nM	183 nM	378 nM
O=C1CN(C(=O)CCC2CCCC2)C(c2ccc(F)cc2)c2cc(F)ccc2N1 (configuration not stated)	60300 nM	666 nM	230 nM
O=C(Cc1ccccc1)NC(c1ccccc1)c1ccc2cccnc2c1O (configuration not stated)	> 100000 nM	423 nM	382 nM
CCOc1cc(-c2nnc3[nH]c(=O)n(C)c(=O)c3n2)ccc1OC(C)C	> 100000 nM	1100 nM	394 nM
CC(=O)Oc1ccccc1-c1nc2ccccn2c1NC(C)(C)CC(C)(C)C	> 9440 nM	489 nM	36.7 nM
Cc1cc(C(C)(C)C)cc(S(=O)(=O)NCCO)c1C	> 100000 nM	> 12500 nM	377 nM
CCN1CCN(Cc2c(O)ccc3c(=O)c(Oc4ccccc4Br)c(C(F)(F)F)oc23)CC1	> 100000 nM	1390 nM	377 nM
Nc1c(C(=O)Nc2ccc(F)cc2)sc2nc3c(c(-c4cccs4)c12)CCCCC3	> 100000 nM	937 nM	388 nM
C=CC[N+]1(CC#Cc2cccc3ccccc23)CCCCC1	> 100000 nM	683 nM	396 nM
CCOc1ccccc1NC(=O)Cn1c(=O)n(Cc2ccccc2)c(=O)c2c(C)c(C(=O)N(C)C)sc21	> 100000 nM	883 nM	377 nM
Cn1c(-c2ccc([N+](=O)[O-])cc2)[n+](C)c2ccccc21	> 100000 nM	1310 nM	376 nM
CCCC(=O)N1CCN(c2nc(Cc3ccccc3)c3c(c2C#N)CC(C)(C)OC3)CC1	> 90900 nM	324 nM	363 nM
Cc1c(C)n(Cc2ccc(F)cc2)c2ccc(C(=O)NCc3ccco3)cc12	> 100000 nM	78.2 nM	399 nM
CCOc1cc2c(cc1OCC)C(c1cc(Cl)ccc1O)NCC2 (configuration not stated)	24200 nM	404 nM	96.4 nM
C#CCNC(=O)c1ccc(OC2CCN(CC3CCCCC3)CC2)c(Cl)c1	> 100000 nM	499 nM	396 nM
CN(CCCNc1ccnc2cc(Cl)ccc12)C(=O)COc1ccc(Cl)cc1	20300 nM	59.2 nM	78.5 nM
CCOC(=O)c1ccc2c(c1)[C@@H]1C=CC[C@@H]1[C@H](c1ccc(OC)c([N+](=O)[O-])c1)N2	> 100000 nM	390 nM	376 nM
CN(c1ncnc2sc3c(c12)CCCC3)C1CCCCC1	> 10000 nM	> 921 nM	< 37.4 nM
C=CCn1nc(C(=O)N2CCCC2)c2c1CCC(N1CCCCCC1)C2 (configuration not stated)	> 10000 nM	772 nM	39.8 nM
COc1ccc(-c2csc(Nc3cccc(Cl)c3C)n2)cc1OC	> 89300 nM	8210 nM	355 nM
COc1ccc2c(c1)N(C(=O)CSc1nc3ccccc3o1)C(C)(C)c1ssc(=S)c1-2	> 100000 nM	345 nM	392 nM

SMILES	CC50 [1]	EC50 (Plasmodium falciparum [2])	EC50 (Plasmodium falciparum [3])
C=CCc1cc(C=c2sc3n(c2=O)C(c2ccccc2)C(C(=O)OCC)=C(C)N=3)cc(OC)c1O (configuration not stated)	> 100000 nM	2500 nM	391 nM
CCN1CCN(c2nc3ccccn3c(=O)c2C=C2SC(=S)N(C(C)C)C2=O)CC1	79000 nM	701 nM	304 nM
COc1ccc2nc(C)cc(NN=Cc3cccc(OC)c3O)c2c1	6120 nM	25.1 nM	23.5 nM
CCc1cc(=O)n(C)c(SC(CC)C(=O)Nc2ccc(F)cc2)n1 (configuration not stated)	> 100000 nM	484 nM	383 nM
O=C1CC(c2ccc(O)cc2)C2=C(CC(c3ccccc3Cl)CC2=O)N1 (configuration not stated)	> 100000 nM	672 nM	391 nM
Cc1c(Cl)cccc1NC(=S)N1CCCN(c2ccc(C(F)(F)F)cc2[N+](=O)[O-])CC1	51400 nM	254 nM	202 nM
Cn1c(SCCCCNC(=O)c2cc([N+](=O)[O-])cc([N+](=O)[O-])c2)nc(-c2ccccc2)c1-c1ccccc1	> 8570 nM	1410 nM	33.7 nM
Cc1ccn2c(NC(C)(C)CC(C)(C)C)c(-c3ccccc3OC(=O)c3cccs3)nc2c1	> 10000 nM	667 nM	39.3 nM
CC(C)CSc1nc2sc3c(c2c(=O)n1-c1ccccc1)CCN(Cc1ccccc1)C3	> 100000 nM	945 nM	392 nM
CN(C)CCNc1c2c(nc3ccccc13)CCC2	61400 nM	579 nM	242 nM
Cc1ccccc1N=Nc1ccc(NC(=O)c2ccco2)c(C)c1	72200 nM	402 nM	272 nM
Cc1ccc(-c2nn3c(O)c4c(nc3c2C)CCCC4)cc1	> 100000 nM	256 nM	384 nM
C=CCn1c(=N)n(CC(O)c2ccc(Cl)c(Cl)c2)c2ccccc21 (configuration not stated)	14700 nM	140 nM	58.3 nM
Cc1cc(=O)oc2c1ccc1oc(C(=O)c3ccccc3)c(C)c12	> 100000 nM	441 nM	392 nM
COc1cc(C=CC(=O)Nc2c3c(nn2-c2ccc(F)cc2)CSC3)cc(OC)c1OC	> 100000 nM	918 nM	381 nM
CCC1CCCCN1C(=O)C1CC(=O)N(c2ccc(OC)cc2)C1c1ccc(OC)cc1 (configuration not stated)	> 100000 nM	387 nM	394 nM
COc1cc(C=NNc2nc3ccccc3[nH]2)cc(OC)c1OC	87500 nM	176 nM	339 nM
CCOc1cccc(Nc2c3c(nc4ncnn24)CCC3)c1	> 100000 nM	597 nM	374 nM
NC(=S)NN=CC(=NNC(N)=S)c1ccccc1	> 10000 nM	48.1 nM	37.6 nM
O=C(NC(=CC=Cc1ccccc1)C(=O)N1CCCCC1)c1ccc([N+](=O)[O-])cc1	> 100000 nM	8290 nM	392 nM
O=C(Nc1ccc(-c2nc3ccccc3[nH]2)cc1)c1cccc(C(=O)Nc2ccc(-c3nc4ccccc4[nH]3)cc2)n1	31700 nM	121 nM	126 nM
Cc1onc(-c2ccccc2)c1C(=O)N1CCC(CNc2c(-c3ccc(F)cc3)nc3ccccn23)CC1	45000 nM	674 nM	178 nM
Cc1ccccc1Oc1cc(NC(=O)c2cc3n(n2)C(C(F)(F)F)CC(c2ccccc2)N3)cc(Oc2ccccc2C)c1 (configuration not stated)	> 100000 nM	359 nM	380 nM
O=C(NN=Cc1c(O)ccc2ccccc12)c1cccnc1	> 100000 nM	875 nM	373 nM
COc1cc(C2c3[nH]c4ccccc4c3C[C@H]3C(=O)N(CCc4ccccc4)CC(=O)N23)cc(OC)c1OC (some centres not stated)	> 100000 nM	611 nM	374 nM
C=CCn1c(=O)c(C(=O)NCC[N+](CC)(CC)CC=C)c(O)c2ccccc21	> 100000 nM	1130 nM	385 nM
CSc1ccccc1CN1CCc2nc(N3CCCCC3)sc2C1	> 10000 nM	369 nM	38.1 nM

Source: ChEMBL document CHEMBL1156829 (Proc Natl Acad Sci U S A, 2008)
